Test results from ChEMBL document CHEMBL4665709, “Rational Avoidance of Protease Cleavage Sites and Symmetrical End-Tagging Significantly Enhances the Stability and Therapeutic Potential of Antimicrobial Peptides” (J Med Chem, 2020).
Values after ≈ are worked out from the molar mass of the structure shown. Where a SMILES comes first, the peptide text is derived from it.

Experiments:
[1] = Therapeutic index, ratio of MHC for human RBC to geometric mean of peptide MIC for Streptococcus agalactiae H92; format: toxicity; conditions: human red blood cells (RBC), read-out: TI
[2] = Therapeutic index, ratio of MHC for human RBC to geometric mean of peptide MIC for Staphylococcus epidermidis ATCC 12228; format: toxicity; conditions: human red blood cells (RBC), read-out: TI
[3] = Therapeutic index, ratio of MHC for human RBC to geometric mean of peptide MIC for methicillin-resistant Staphylococcus aureus 43300; format: toxicity; conditions: human red blood cells (RBC), read-out: TI
[4] = Therapeutic index, ratio of MHC for human RBC to geometric mean of peptide MIC for Enterococcus faecalis ATCC 29212; format: toxicity; conditions: human red blood cells (RBC), read-out: TI
[5] = Therapeutic index, ratio of MHC for human RBC to geometric mean of peptide MIC for Staphylococcus aureus ATCC 29213; format: toxicity; conditions: human red blood cells (RBC), read-out: TI
[6] = Therapeutic index, ratio of MHC for human RBC to geometric mean of peptide MIC for Staphylococcus aureus 11011; format: toxicity; conditions: human red blood cells (RBC), read-out: TI
[7] = Therapeutic index, ratio of MHC for human RBC to geometric mean of peptide MIC for Salmonella pullorum 7913; format: toxicity; conditions: human red blood cells (RBC), read-out: TI
[8] = Therapeutic index, ratio of MHC for human RBC to geometric mean of peptide MIC for Salmonella typhimurium 7731; format: toxicity; conditions: human red blood cells (RBC), read-out: TI
[9] = Therapeutic index, ratio of MHC for human RBC to geometric mean of peptide MIC for Salmonella choleraesuis 503; format: toxicity; conditions: human red blood cells (RBC), read-out: TI
[10] = Therapeutic index, ratio of MHC for human RBC to geometric mean of peptide MIC for Escherichia coli UB1005; format: toxicity; conditions: human red blood cells (RBC), read-out: TI
[11] = Therapeutic index, ratio of MHC for human RBC to geometric mean of peptide MIC for Salmonella typhimurium 14028; format: toxicity; conditions: human red blood cells (RBC), read-out: TI
[12] = Therapeutic index, ratio of MHC for human RBC to geometric mean of peptide MIC for Escherichia coli ATCC 25922; format: toxicity; conditions: human red blood cells (RBC), read-out: TI
[13] = tested on: Staphylococcus aureus; assay: Antibacterial activity against Staphylococcus aureus ATCC 29213 after 18 to 24 hrs by CLSI-based broth microdilution method; format: functional; conditions: time hrs 18-24
[14] = tested on: Staphylococcus aureus; assay: Antibacterial activity against Staphylococcus aureus 11011 after 18 to 24 hrs by CLSI-based broth microdilution method; format: functional; conditions: time hrs 18-24
[15] = tested on: Escherichia coli; assay: Antibacterial activity against Escherichia coli ATCC 25922 after 18 to 24 hrs by CLSI-based broth microdilution method; format: functional; conditions: time hrs 18-24
[16] = tested on: Escherichia coli; assay: Antibacterial activity against Escherichia coli UB1005 after 18 to 24 hrs by CLSI-based broth microdilution method; format: functional; conditions: time hrs 18-24
[17] = tested on: Salmonella typhimurium; assay: Antibacterial activity against Salmonella typhimurium 14028 after 18 to 24 hrs by CLSI-based broth microdilution method; format: functional, Salmonella enterica subsp. enterica serovar Typhimurium; conditions: Salmonella enterica, time hrs 18-24
[18] = tested on: Salmonella typhimurium; assay: Antibacterial activity against Salmonella typhimurium 7731 after 18 to 24 hrs by CLSI-based broth microdilution method; format: functional, Salmonella enterica subsp. enterica serovar Typhimurium; conditions: Salmonella enterica, time hrs 18-24
[19] = Antibacterial activity against Salmonella pullorum 7913 after 18 to 24 hrs by CLSI-based broth microdilution method; format: functional, Salmonella enterica subsp. enterica serovar Pullorum; conditions: Salmonella enterica, time hrs 18-24
[20] = tested on: Salmonella enterica; assay: Antibacterial activity against Salmonella choleraesuis 503 after 18 to 24 hrs by CLSI-based broth microdilution method; format: functional; conditions: time hrs 18-24
[21] = tested on: Staphylococcus epidermidis; assay: Antibacterial activity against Staphylococcus epidermidis ATCC 12228 after 18 to 24 hrs by CLSI-based broth microdilution method; format: functional; conditions: time hrs 18-24
[22] = tested on: Enterococcus faecalis; assay: Antibacterial activity against Enterococcus faecalis ATCC 29212 after 18 to 24 hrs by CLSI-based broth microdilution method; format: functional; conditions: time hrs 18-24
[23] = tested on: Staphylococcus aureus; assay: Antibacterial activity against methicillin-resistant Staphylococcus aureus 43300 after 18 to 24 hrs by CLSI-based broth microdilution method; format: functional; conditions: time hrs 18-24
[24] = tested on: Streptococcus agalactiae; assay: Antibacterial activity against Streptococcus agalactiae H92 after 18 to 24 hrs by CLSI-based broth microdilution method; format: functional; conditions: time hrs 18-24
[25] = tested on: Erythrocyte; assay: Hemolytic activity in human RBC assessed as hemolysis; format: ADME, cell-based
[26] = Hemolytic activity in human RBC assessed as hemolysis at 1 to 128 uM relative to control; format: ADME, cell-based, Erythrocyte; conditions: human red blood cells (RBC), dose 1-128 µM, read-out: Activity
[27] = Cytotoxicity against mouse RAW264.7 cells assessed as cell viability at 128 uM by MTT assay relative to control; format: cell-based; conditions: read-out: Activity
[28] = Cytotoxicity against HEK-293T cells assessed as cell viability at 128 uM by MTT assay relative to control; format: cell-based; conditions: human, read-out: Activity

CC[C@H](C)[C@H](N)C(=O)N[C@H](C(=O)N[C@@H](CS)C(=O)N[C@@H](CCCNC(=N)N)C(=O)N[C@@H](CCCCN)C(=O)N1CCC[C@H]1C(=O)N[C@H](C(=O)N[C@H](C(=O)N[C@@H](CS)C(=O)N[C@@H](CCCNC(=N)N)C(=O)N[C@@H](CCCCN)C(=O)N1CCC[C@H]1C(=O)N[C@H](C(=O)N[C@H](C(=O)N[C@@H](CS)C(=O)N[C@@H](CCCNC(=N)N)C(=O)N[C@@H](CCCCN)C(=O)N1CCC[C@H]1C(=O)N[C@H](C(=O)N[C@H](C(=O)N[C@@H](CS)C(=O)N[C@@H](CCCNC(=N)N)C(=O)N[C@@H](CCCCN)C(=O)N1CCC[C@H]1C(=O)N[C@H](C(=O)N[C@H](C(=O)N[C@@H](CS)C(=O)N[C@@H](CCCNC(=N)N)C(=O)N[C@@H](CCCCN)C(=O)N1CCC[C@H]1C(=O)N[C@H](C(=O)N[C@H](C(N)=O)[C@@H](C)CC)[C@@H](C)CC)[C@@H](C)CC)[C@@H](C)CC)[C@@H](C)CC)[C@@H](C)CC)[C@@H](C)CC)[C@@H](C)CC)[C@@H](C)CC)[C@@H](C)CC)[C@@H](C)CC (H-IICRKPIICRKPIICRKPIICRKPIICRKPII-NH2)
selectivity ratio [1]: 2
selectivity ratio [2]: 2
selectivity ratio [3]: 2
selectivity ratio [4]: 2
selectivity ratio [5]: 2
selectivity ratio [6]: 2
selectivity ratio [7]: 40.3
selectivity ratio [8]: 40.3
selectivity ratio [9]: 40.3
selectivity ratio [10]: 40.3
selectivity ratio [11]: 40.3
selectivity ratio [12]: 40.3
MIC [13]: > 64 µM
MIC [14]: > 64 µM
MIC [15]: 2 µM (≈ 7.6 µg/mL)
MIC [16]: 2 µM (≈ 7.6 µg/mL)
MIC [17]: 4 µM (≈ 15.2 µg/mL)
MIC [18]: 2 µM (≈ 7.6 µg/mL)
MIC [19]: 8 µM (≈ 30.4 µg/mL)
MIC [20]: 4 µM (≈ 15.2 µg/mL)
MIC [21]: 64 µM (≈ 243 µg/mL)
MIC [22]: > 64 µM
MIC [23]: 64 µM (≈ 243 µg/mL)
MIC [24]: > 64 µM
MHC [25]: > 128 µM
hemolysis at up to 128 µM [26]: < 5%
viability at 128 µM [27]: > 90%
viability at 128 µM [28]: > 90%

CC[C@H](C)[C@H](N)C(=O)N[C@H](C(=O)N[C@H](C(=O)N[C@@H](CS)C(=O)N[C@@H](CCCNC(=N)N)C(=O)N[C@@H](CCCCN)C(=O)N1CCC[C@H]1C(=O)N[C@H](C(=O)N[C@H](C(=O)N[C@@H](CS)C(=O)N[C@@H](CCCNC(=N)N)C(=O)N[C@@H](CCCCN)C(=O)N1CCC[C@H]1C(=O)N[C@H](C(=O)N[C@H](C(=O)N[C@@H](CS)C(=O)N[C@@H](CCCNC(=N)N)C(=O)N[C@@H](CCCCN)C(=O)N1CCC[C@H]1C(=O)N[C@H](C(=O)N[C@H](C(=O)N[C@@H](CS)C(=O)N[C@@H](CCCNC(=N)N)C(=O)N[C@@H](CCCCN)C(=O)N1CCC[C@H]1C(=O)N[C@H](C(=O)N[C@H](C(=O)N[C@@H](CS)C(=O)N[C@@H](CCCNC(=N)N)C(=O)N[C@@H](CCCCN)C(=O)N1CCC[C@H]1C(=O)N[C@H](C(=O)N[C@H](C(=O)N[C@H](C(N)=O)[C@@H](C)CC)[C@@H](C)CC)[C@@H](C)CC)[C@@H](C)CC)[C@@H](C)CC)[C@@H](C)CC)[C@@H](C)CC)[C@@H](C)CC)[C@@H](C)CC)[C@@H](C)CC)[C@@H](C)CC)[C@@H](C)CC)[C@@H](C)CC (H-IIICRKPIICRKPIICRKPIICRKPIICRKPIII-NH2)
selectivity ratio [1]: 2
selectivity ratio [2]: 2
selectivity ratio [3]: 2
selectivity ratio [4]: 2
selectivity ratio [5]: 2
selectivity ratio [6]: 2
selectivity ratio [7]: 32
selectivity ratio [8]: 32
selectivity ratio [9]: 32
selectivity ratio [10]: 32
selectivity ratio [11]: 32
selectivity ratio [12]: 32
MIC [13]: > 64 µM
MIC [14]: > 64 µM
MIC [15]: 4 µM (≈ 16.1 µg/mL)
MIC [16]: 2 µM (≈ 8.05 µg/mL)
MIC [17]: 4 µM (≈ 16.1 µg/mL)
MIC [18]: 4 µM (≈ 16.1 µg/mL)
MIC [19]: 8 µM (≈ 32.2 µg/mL)
MIC [20]: 4 µM (≈ 16.1 µg/mL)
MIC [21]: > 64 µM
MIC [22]: > 64 µM
MIC [23]: > 64 µM
MIC [24]: > 64 µM
MHC [25]: > 128 µM
hemolysis at up to 128 µM [26]: < 5%
viability at 128 µM [27]: > 90%
viability at 128 µM [28]: > 90%

CC[C@H](C)[C@H](N)C(=O)N[C@H](C(=O)N[C@H](C(=O)N[C@@H](CS)C(=O)N[C@@H](CCCNC(=N)N)C(=O)N[C@@H](CCCCN)C(=O)N1CCC[C@H]1C(=O)N[C@H](C(=O)N[C@H](C(=O)N[C@@H](CS)C(=O)N[C@@H](CCCNC(=N)N)C(=O)N[C@@H](CCCCN)C(=O)N1CCC[C@H]1C(=O)N[C@H](C(=O)N[C@H](C(=O)N[C@@H](CS)C(=O)N[C@@H](CCCNC(=N)N)C(=O)N[C@@H](CCCCN)C(=O)N1CCC[C@H]1C(=O)N[C@H](C(=O)N[C@H](C(=O)N[C@H](C(N)=O)[C@@H](C)CC)[C@@H](C)CC)[C@@H](C)CC)[C@@H](C)CC)[C@@H](C)CC)[C@@H](C)CC)[C@@H](C)CC)[C@@H](C)CC)[C@@H](C)CC (H-IIICRKPIICRKPIICRKPIII-NH2)
selectivity ratio [1]: 2.52
selectivity ratio [2]: 2.52
selectivity ratio [3]: 2.52
selectivity ratio [4]: 2.52
selectivity ratio [5]: 2.52
selectivity ratio [6]: 2.52
selectivity ratio [7]: 16
selectivity ratio [8]: 16
selectivity ratio [9]: 16
selectivity ratio [10]: 16
selectivity ratio [11]: 16
selectivity ratio [12]: 16
MIC [13]: > 64 µM
MIC [14]: > 64 µM
MIC [15]: 4 µM (≈ 10.4 µg/mL)
MIC [16]: 4 µM (≈ 10.4 µg/mL)
MIC [17]: 8 µM (≈ 20.8 µg/mL)
MIC [18]: 8 µM (≈ 20.8 µg/mL)
MIC [19]: 16 µM (≈ 41.6 µg/mL)
MIC [20]: 16 µM (≈ 41.6 µg/mL)
MIC [21]: > 64 µM
MIC [22]: > 64 µM
MIC [23]: > 64 µM
MIC [24]: 16 µM (≈ 41.6 µg/mL)
MHC [25]: > 128 µM
hemolysis at up to 128 µM [26]: < 5%
viability at 128 µM [27]: > 90%
viability at 128 µM [28]: > 90%

CC[C@H](C)[C@H](N)C(=O)N[C@H](C(=O)N[C@H](C(=O)N[C@@H](CS)C(=O)N[C@@H](CCCNC(=N)N)C(=O)N[C@@H](CCCCN)C(=O)N1CCC[C@H]1C(=O)N[C@H](C(=O)N[C@H](C(=O)N[C@@H](CS)C(=O)N[C@@H](CCCNC(=N)N)C(=O)N[C@@H](CCCCN)C(=O)N1CCC[C@H]1C(=O)N[C@H](C(=O)N[C@H](C(=O)N[C@H](C(N)=O)[C@@H](C)CC)[C@@H](C)CC)[C@@H](C)CC)[C@@H](C)CC)[C@@H](C)CC)[C@@H](C)CC)[C@@H](C)CC (H-IIICRKPIICRKPIII-NH2)
selectivity ratio [1]: 2
selectivity ratio [2]: 2
selectivity ratio [3]: 2
selectivity ratio [4]: 2
selectivity ratio [5]: 2
selectivity ratio [6]: 2
selectivity ratio [7]: 6.35
selectivity ratio [8]: 6.35
selectivity ratio [9]: 6.35
selectivity ratio [10]: 6.35
selectivity ratio [11]: 6.35
selectivity ratio [12]: 6.35
MIC [13]: > 64 µM
MIC [14]: > 64 µM
MIC [15]: 8 µM (≈ 15.1 µg/mL)
MIC [16]: 8 µM (≈ 15.1 µg/mL)
MIC [17]: 32 µM (≈ 60.5 µg/mL)
MIC [18]: 32 µM (≈ 60.5 µg/mL)
MIC [19]: 32 µM (≈ 60.5 µg/mL)
MIC [20]: 32 µM (≈ 60.5 µg/mL)
MIC [21]: > 64 µM
MIC [22]: > 64 µM
MIC [23]: > 64 µM
MIC [24]: 64 µM (≈ 121 µg/mL)
MHC [25]: > 128 µM
hemolysis at up to 128 µM [26]: < 5%
viability at 128 µM [27]: > 90%
viability at 128 µM [28]: > 90%
